The values below come from patent US20030091510A1, “METHODS FOR TREATING AND PREVENTING ASTHMA AND NON-INVASIVE FUNGUS-INDUCED RHINOSINUSITIS” (priority 1997, published 2003).

In brackets after ≈: the same amount, converted by molar mass. Several values for one entry are separate records, joined by “and”; a condition that tells them apart may be missing. Equal values may be shown once.

The test system of one series is Penicillium. The series can be described thus: MIC, macro broth dilution technique (NCCLS) on patient fungal isolates. Type of series: cell-based. The following applies: 48 hour MIC reading; isolates from rhinosinusitis patients; one isolate per table line. The procedure: (§1) The following procedure was used to determine effective antifungal agents as well as effective concentrations of antifungal agents such that the fungal organisms isolated from patients can be prevented from growing or killed.
(§2) Seventeen fungal isolates were collected from eight rhinosinusitis patients and tested for susceptibility against amphotericin B, ketoconazole, and itraconazole. Each antifungal agent was tested on these fungal isolates using the macro broth dilution technique according to the National Committee on Clinical Laboratory Standards (NCCLS) protocol. […] The results from this procedure provided an estimate of the efficacy of antifungal agents against specific fungal isolates in vitro.
(In broth dilution the organism is exposed to a series of concentrations in liquid medium.)

For series [1], the system named is non-invasive fungus-induced rhinosinusitis patients. The series can be described thus: Itraconazole nasal irrigations in rhinosinusitis patients (Example 7). Type of series: in vivo, human. Here is the method: Three non-invasive fungus-induced rhinosinusitis patients (person, person, and person) were instructed to perform nasal irrigation with an itraconazole solution. The itraconazole solution contained about 100 mg of itraconazole per L of solution (10% PEG-400 in sterile water) and was prepared as described herein. […] Each patient reported marked improvement in symptoms within two weeks of starting the itraconazole irrigations (symptom scores: −1 to +2 and −1 to +1).
After treatment with itraconazole, that patient reported symptom improvement (symptom score: from −1 to 0).

A further series deals with chronic asthma patient. The series can be described thus: Itraconazole nasal irrigations in an asthma patient, symptoms and pulmonary function (Example 8). The format is in vivo, human. Here is the method:
Sputum and nasal-paranasal mucus samples were collected and analyzed.
The concentration of the itraconazole solution was about 100 mg per liter. After a few weeks, the patient took their last course of systemic steroids. About two months after stopping the systemic steroids, the patient also stopped using the topical steroids as well as the bronchodilator.

Series [2] is described as follows: Oral itraconazole capsule, fraction remaining in the bowel lumen (Example 10). Type of series: in vivo, human. The following applies: 100 mg capsule before bedtime, at least two hours after last meal, without cola. The source says: Three out of five consecutive patients with chronic rhinosinusitis reported having a history of colitis. […] Each patient was instructed to take the capsule before bedtime a minimum of two hours after their last meal and without any cola. Food and cola beverages increase absorption of the drug.

The next series has as its system Geotrichum. The series can be described thus: MIC, macro broth dilution technique (NCCLS) on patient fungal isolates. Type of series: cell-based. The following applies: 48 hour MIC reading; isolate from rhinosinusitis patient. The procedure:
as §1, §2

Another series relates to Trichoderma. Described as above. The format is cell-based. The following applies: 48 hour MIC reading; isolate from rhinosinusitis patient. The procedure:
as §1, §2

The subject of series [3] is non-invasive fungus-induced rhinosinusitis patients. The series can be described thus: Amphotericin B nasal irrigation study, three month follow-up (Example 2). Type of series: in vivo, human. The source says: In addition to patient interviewing, CT scan analysis, visual examination, and fungal culture analysis, two types of evaluations were used to score the success of the treatment: an endoscopic evaluation and a patient symptom evaluation. These evaluations were scored as follows:
(§3) Stage 0: no evidence of disease
(§4) Stage 1: polypoid changes/polyps seen by endoscopy only
(§5) Stage 2: polyps in the middle meatus
(§6) Stage 3: polyps filling the nasal cavity
(§7) Patient Symptom Evaluation
(§8) Stage −2: very bad/much worse
(§9) Stage 0: baseline/no change
(§10) Stage 2: very good/free of symptoms

Series [4] deals with fungal organisms within their mucus. The series can be described thus: Examination of mucus samples of non-responding patients for resistance. The format is cell-based. The following applies: five of the nine non-responding patients with available samples, all five. The source says: Eleven of the 53 patients went from endoscopic evaluation stage 2 or 3 to stage 1 after three months. […] Five of the nine non-responding patients had previously collected mucus samples that were available for examination.

For another series, the system named is rhinosinusitis patient. The series can be described thus: Single patient study, one-sided then two-sided amphotericin B irrigation, RAST assay to Alternaria. Type of series: in vivo, human.
Series [5] concerns non-invasive fungus-induced rhinosinusitis patients. The series can be described thus: Patients returning during a one week period on amphotericin B nasal irrigations (Table II). Type of series: in vivo, human. Further details: key to Endoscopy Score A: endoscopy stage 0 = no disease to 3 = polyps filling nasal cavity. The following applies: A = after antifungal treatment, one patient per line.
Text: as §3, §4, §5, §6, §7, §8, §9, §10
Only previously seen patients that were instructed to use the antifungal amphotericin B nasal irrigations were entered into this study.
During a one week period, twenty patients returned to the physician's office (Table II). The average age of the returning patients was 47 years (range 16-74 years). The patients were using the amphotericin B irrigations for an average duration of about six months (range 1-16 months). […] In addition, some patients were using topical and systemic steroid therapy. Further, some patients were using an antibiotic nasal irrigation in addition to the antifungal irrigations. The antibacterial solution contained 80 mg gentamicin per L saline (Wilson's solution). Some patients mixed the antibacterial solution with the antifungal solution and then performed the nasal irrigations while others used each solution separately in a sequential manner. Some patients also had other diseases including asthma (15 of the 20 patients) and colitis (2 of the 20 patients).

Series [6] has the same test system. The series can be described thus: Amphotericin B irrigations in patients without previous nasal surgery (Example 3). Type of series: in vivo, human. The following applies: patient; for symptom score after treatment: score −1 before. The source says:
A person was diagnosed with non-invasive fungus-induced rhinosinusitis and instructed to perform amphotericin B irrigations twice a day.
A person was diagnosed with non-invasive fungus-induced rhinosinusitis and instructed to perform amphotericin B irrigations twice a day, which was later increased to four times a day.
A person was diagnosed with non-invasive fungus-induced rhinosinusitis and instructed to perform amphotericin B irrigations twice a day. This patient had been given intramuscular steroid shots every 3 to 8 months with the last shot being administered about seven months prior to starting the amphotericin B irrigations.

For series [7], the system named is non-invasive fungus-induced rhinosinusitis patient. The series can be described thus: Eosinophil count in mucosal biopsies after antifungal treatment (Example 4). Type of series: in vivo, human. The following applies: person.
Series [8] concerns patients with previously diagnosed chronic asthma. The series can be described thus: Chronic asthma symptoms in patients of the Example 2 study (Example 5). The format is in vivo, human.
Text: One hundred and thirty-two consecutive rhinosinusitis patients were entered into a study to evaluate the use of an antifungal agent to treat non-invasive fungus-induced rhinosinusitis. After diagnostic analysis, 125 of the 132 patients (95%) had the following criteria: (1) presence of observable disease within the nasal-paranasal anatomy as evidenced by a CT scan, (2) presence of allergic mucus as evidenced by histologic evaluation of a surgical specimen, and (3) presence of fungal organisms within nasal-paranasal mucus as evidenced by the ability to culture fungal organisms from a mucus sample. The 125 non-invasive fungus-induced rhinosinusitis patients were started on an antifungal treatment of about 20 mL of an amphotericin B solution per nostril; two to four times daily for at least three months. The concentration of the amphotericin B solution was about 100 mg per liter of saline or water. A 20 mL bulb was used by the patient to mucoadminister the amphotericin B solution into the patient's nasal-paranasal anatomy. Data were compiled for 53 of the patients who had returned for their three month follow-up analysis.
The next series relates to Cladosporium. The series can be described thus: MIC, macro broth dilution technique (NCCLS) on patient fungal isolates. Type of series: cell-based. The following applies: 48 hour MIC reading; isolates from rhinosinusitis patients; one isolate per table line. The procedure:
as §1, §2

Setting [9] is: sixteen days after starting itraconazole irrigations, score 1 before.
[10] abbreviates: after seven months versus before treatment.
Setting [11] is: after three months, about 20 mL of 100 mg/L solution per nostril two to four times daily.
Setting [12] is: after treatment, three month follow-up.

Consider `CCC(C)n1ncn(-c2ccc(N3CCN(c4ccc(OCC5COC(Cn6cncn6)(c6ccc(Cl)cc6Cl)O5)cc4)CC3)cc2)c1=O` (stereo not drawn) [Itraconazole, itraconazole], for which the MIC (as a rule, the lowest concentration that inhibits growth of the organism) with Penicillium turned out to be 0.25 µg/mL (≈ 0.354 µM). Further, in [1] (setting [9]), the “endoscopic score, left side” value is 1 and the “endoscopic score, right side” value was 0. The “adverse local reaction to nasal irrigations” value in series [1] (third patient, itraconazole irrigations) is recorded as “did not have any adverse local reaction”. Also, the “symptom score after itraconazole irrigations” value in series [1] (third patient, switched because of adverse reaction to amphotericin B, score −1 before) amounted to 0. For the same compound, the “forced expiratory volume in 1 second (FEV1) after treatment” value in the series on chronic asthma patient (after seven months of irrigations, 3.34 liter before treatment) is 4.27 L. In the series with chronic asthma patient (after seven months of irrigations, 3.99 liter before treatment), the “forced vital capacity (FVC) after treatment” value was found to be 4.80 L. The “maximal forced expiratory flow (FEFmax) after treatment” value in the series with chronic asthma patient (after seven months of irrigations, 9.1 liter per second before treatment) stood at 12.6 liter per second. Further, in the series with chronic asthma patient (after seven months of irrigations, 119 liter per minute before treatment), the “maximum voluntary ventilation (MVV) after treatment” value stood at 156 liter per minute. Further, in the series with chronic asthma patient (setting [10]), the “improvement of MVV” value is 31.90%, the “increase of FEFmax” value is 38.46%, the “increase of FEV1” value is 27.84% and the “increase of FVC” value is listed as 20.30%. Further, in series [2], the “itraconazole that should remain in the bowel lumen” value was “about 50%”.
Consider `C[C@@H]1[C@H](O)[C@@H](C)/C=C/C=C/C=C/C=C/C=C/C=C/C=C/[C@H](O[C@@H]2O[C@H](C)[C@@H](O)[C@H](N)[C@@H]2O)C[C@@H]2O[C@](O)(C[C@@H](O)C[C@@H](O)[C@H](O)CC[C@@H](O)C[C@@H](O)CC(=O)O[C@H]1C)C[C@H](O)[C@H]2C(=O)O` [Amphotericin B, amphotericin B], for which the MIC turned out to be 0.1 µg/mL (≈ 0.108 µM) in the series with Geotrichum and 4 µg/mL (≈ 4.33 µM) in the series with Trichoderma. Also, the “CT scan finding, patient with bilateral rhinosinusitis” value in [3] (after four months, 20 mL of 100 mg/L solution per nostril two times daily, no recent surgery, no steroids, FIG. 1 and 2) is “complete disappearance of opacity and symptoms characteristic of rhinosinusitis”. Also, the “number of the 33 stage 0 cases confirmed by CT scans” value in series [3] (after three months) is reported as “Six”. In addition, the “number of the 53 patients that went from endoscopic evaluation stage 2 or 3 to stage 0 (no evidence of disease)” value in series [3] (setting [11]) is reported as 33. Besides, the “number of the 53 patients that went from endoscopic evaluation stage 2 or 3 to stage 1” value in series [3] (setting [11]) was “Eleven”. The “number of the 53 patients that did not respond to the treatment” value in series [3] (after three months, endoscopic evaluation) is listed as “nine”. The “number of the 53 patients giving themselves symptom stage 0 (baseline/no change)” value in [3] (setting [12]) is given as “six”. For the same compound, in [3] (setting [12]), the “number of the 53 patients giving themselves symptom stage 1 (good/improved)” value is reported as “three”. Also, the “number of the 53 patients giving themselves symptom stage 2 (very good/free of symptoms)” value in [3] (setting [12]) was 44. Further, the “number of different fungal species in mucus after versus before antifungal treatment” value in series [3] (several patients, fungal organism culturing, amphotericin B irrigation of Example 2) is “remarkably reduced”. Further, in [4], the “susceptibility of fungal organisms in mucus of non-responding patients” value is listed as “resistant”. Besides, in the series on rhinosinusitis patient (left side surgery plus intra- and post-operative irrigation), the “state of left paranasal sinuses at every post-operative visit” value was “clear of disease”. Also, in the series on rhinosinusitis patient (right side surgery and irrigation of both sides for about seven weeks), the “symptoms after treatment of both sides” value is given as “symptom-free”. Besides, in [5] (irrigations 1-16 months, 1-2 x day, 0 no evidence of disease, 1 polypoid changes/polyps by endoscopy only, 2 polyps in middle meatus, 3 polyps filling nasal cavity), the “Endoscopy Score A” value is 0 (10×) and 3 (5×) and 1 (2×). For the same compound, in series [5] (−2 very bad/much worse, −1 bad/worse, 0 baseline/no change, 1 good/improved, 2 very good/free of symptoms), the “Symptom Score A” value is “+1 (6×) and +2 (6×) and 0 (6×) and −2 and 1”. Further, the “endoscopic score after treatment” value was determined as 0 in series [6] (irrigations twice a day for four months, score 0 before); 0 in series [6] (irrigations twice a day for fourteen months, score 3 before); 0 in [6] (irrigations twice, later four times a day, sixteen months, score 1 before). The “symptom score after treatment” value in series [6] (irrigations twice a day for four months) was “+1”; in series [6] (irrigations twice a day for fourteen months) it was “+2”; in series [6] (irrigations twice, later four times a day, sixteen months), “+2”. For the same compound, in [7] (after nine months of irrigations twice a day), the “eosinophil count in mucosal biopsies, all sinuses except the frontal” value is less than 5%. Further, in series [7] (after nine months of irrigations, frontal sinus obstructed, presumably not reached), the “eosinophil count in the frontal sinus biopsy” value worked out at 10%. Moreover, in [8] (after starting antifungal treatment), the “number of the 28 patients that stopped taking their asthma medication” value came out at 26. Also, the “number of the 37 asthmatic patients declaring an improvement or complete elimination of asthma symptoms” value in [8] (after three months of antifungal treatment (amphotericin B irrigation of Example 2)) is 28. In series [8] (four of the 28 improved patients, all four), the “pulmonary function test before versus after antifungal treatment” value is given as “improved pulmonary function”. Moreover, the “patients of the 23 formerly on systemic steroids that took steroids after starting antifungal treatment” value in [8] (human, in vivo) was “none”. The “adverse local reaction to nasal irrigations” value in series [1] (third patient, amphotericin B irrigations) is listed as “burning sensation”.
For `CC(=O)N1CCN(c2ccc(OCC3COC(Cn4ccnc4)(c4ccc(Cl)cc4Cl)O3)cc2)CC1` (stereo not drawn) [Ketoconazole, ketoconazole], the MIC with Cladosporium turned out to be 0.05 µg/mL (≈ 0.0941 µM); against Penicillium, 3.13 µg/mL (≈ 5.89 µM).
